Results reported in PubChem BioAssay (NCI).
Values joined by “and” are separate entries in the source; they are usually repeats but may differ in a detail not shown here. Identical values can stand only once.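 1) Cells in 96-well plates. 2) Compound, 48 h, 5 concentrations. 3) Linear interpolation between surrounding doses. 4) Unreached endpoint = highest concentration. GI50 is the concentration that inhibits growth by half. TGI denotes the concentration required for complete inhibition of growth.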

Tests used:
Assay in all cases: NCI anticancer screen, dose series, 48 h
ACHN renal = tested on: ACHN renal
COLO 205 colon = tested on: COLO 205 colon
K-562 leukemia = tested on: K-562 leukemia
MALME-3M melanoma = tested on: MALME-3M melanoma
NCI-H522 lung = tested on: NCI-H522 lung
OVCAR-3 ovarian = tested on: OVCAR-3 ovarian
OVCAR-8 ovarian = tested on: OVCAR-8 ovarian
SF-539 CNS = tested on: SF-539 CNS
UACC-62 melanoma = tested on: UACC-62 melanoma
SK-MEL-2 melanoma = tested on: SK-MEL-2 melanoma

| Compound | GI50 (ACHN renal) | TGI (ACHN renal) [µM] | GI50 (COLO 205 colon) | TGI (COLO 205 colon) | GI50 (K-562 leukemia) | TGI (K-562 leukemia) [µM] | GI50 (MALME-3M melanoma) [µM] | TGI (MALME-3M melanoma) [µM] | GI50 (NCI-H522 lung) [µM] | TGI (NCI-H522 lung) | GI50 (OVCAR-3 ovarian) | TGI (OVCAR-3 ovarian) | GI50 (OVCAR-8 ovarian) | TGI (OVCAR-8 ovarian) | GI50 (SF-539 CNS) [µM] | TGI (SF-539 CNS) | GI50 (UACC-62 melanoma) | TGI (UACC-62 melanoma) | TGI (SK-MEL-2 melanoma) | GI50 (SK-MEL-2 melanoma) [µM] |
| --- | --- | --- | --- | --- | --- | --- | --- | --- | --- | --- | --- | --- | --- | --- | --- | --- | --- | --- | --- | --- |
| N/C(=N\O)c1ncc(-c2ccc(C(F)(F)F)cc2)c(NC2CCCCCC2)n1 | 4.49 µM and 2.23 µM | 13.3 | 3.44 µM | 10.6 µM | 4.36 µM and 1.71 µM | 11.8 | 3.81 | 13.9 | 1.92 | 7.69 µM | 8.8 µM and 3.74 µM | 15.2 µM | 4.6 µM and 2.19 µM | 13.4 µM | 3.39 | 12.3 µM | 9.12 µM and 2.65 µM | 10.5 µM | – | – |
| COC(=O)C(C(=O)C(=O)Nc1cccc(O)c1)c1nc2ccc(Cl)cc2[nH]c1=O (configuration not stated) | – | > 100 | – | > 100 µM | – | > 100 | – | > 100 | – | – | – | > 100 µM | – | > 100 µM | – | > 100 µM | – | > 100 µM | > 100 µM | – |
| COC(=O)CCC(NC(=S)N/N=C(\C)c1ccccn1)C(=O)OC (configuration not stated) | – | > 100 | – | > 100 µM | – | > 100 | – | > 100 | – | > 100 µM | – | > 100 µM | – | > 100 µM | – | > 100 µM | – | > 100 µM | > 100 µM | – |
| CCCNc1nc(N(C)O)nc(N(C)O)n1 | 1.03 µM | > 100 | 2.23 µM | 32.2 µM | 2.24 µM | > 100 | 2.96 | 32.5 | 1.11 | 7.3 µM | 0.783 µM | 9.23 µM | 2.45 µM | > 100 µM | 2.51 | > 54.4 µM | 3.09 µM | > 56.9 µM | 7.76 µM | 2.59 |
| N#Cc1ccc(Oc2nccc(-c3c(-c4ccc(F)cc4)ncn3C3CCNCC3)n2)cc1 | > 23.7 µM | > 25 | > 25 µM | > 25 µM | 5.01 µM | 12.4 | > 16.6 | > 25 | > 11.9 | > 15.6 µM | > 25 µM | > 25 µM | > 16.6 µM | > 25 µM | > 25 | > 25 µM | > 25 µM | > 25 µM | > 25 µM | > 25 |
| CC(=O)OC1(C#N)CC2OC1C1C2N1C(=O)c1ccccc1 (configuration not stated) | – | > 100 | – | > 100 µM | – | > 100 | – | > 100 | – | > 100 µM | – | – | – | > 100 µM | – | > 100 µM | – | > 100 µM | > 100 µM | – |
| COc1c(OC(C)=O)cc2c(OC(C)=O)c1CC(C)CC(OC)C(O)C(C)/C=C(\C)C(OC(N)=O)C(OC)/C=C\C=C(/C)C(=O)N2 (configuration not stated) | – | > 100 | – | > 100 µM | – | > 62.6 | – | > 100 | – | > 41.5 µM | – | > 100 µM | – | > 100 µM | – | > 100 µM | – | > 100 µM | > 100 µM | – |
| Cc1ccc2nc3c(Cl)cc(=O)cc-3sc2c1 | – | 54.4 | – | 36.3 µM | – | 56.1 | – | 75.9 | – | 39 µM | – | 10.6 µM | – | 43.4 µM | – | 11.5 µM | – | 31.8 µM | – | – |
| COc1ccc(CN2c3ccccc3Sc3ccccc32)cc1F | 1.25 µM | > 100 | 0.31 µM | 1.36 µM | 0.383 µM | > 100 | > 100 | > 100 | 0.266 | 0.804 µM | 0.312 µM | 2.04 µM | 0.712 µM | > 100 µM | 0.316 | 5.58 µM | 0.516 µM | > 100 µM | > 100 µM | 0.476 |
| C/C(CN1C(=O)c2ccccc2C1=O)=N\NS(=O)(=O)c1ccccc1 | – | > 100 | – | > 100 µM | – | > 100 | – | > 100 | – | > 100 µM | – | > 100 µM | – | > 100 µM | – | > 100 µM | – | > 100 µM | > 100 µM | – |
| CCC(=O)C1=C(OC(C)=O)C2Cc3c(n(C)c4ccccc34)C(C1)N2C (configuration not stated) | – | > 100 | – | > 100 µM | – | > 100 | – | > 100 | – | 30 µM | – | > 100 µM | – | 41.6 µM | – | 59.2 µM | – | > 100 µM | > 100 µM | – |
| CC1=C(N2CC2)C(=O)C(CO)=C(N2CC2)C1=O | 0.00047 µM | – | 0.135 µM and 0.084 µM | 0.29 µM and 0.23 µM | – | 1.07 | – | 0.116 | 0.0112 | 0.0385 µM and 0.0489 µM | 0.0377 µM | 0.557 µM and 0.0564 µM | 0.0145 µM | 0.0701 µM and 0.0799 µM | 0.00301 | 0.019 µM and 0.0593 µM | – | 0.146 µM and 0.23 µM | 0.0988 µM and 0.585 µM | – |
| COc1cc2cc3c4c(cc(OC)c(OC)c4c2cc1OC)CCN3C(=O)CCCC(=O)O | – | > 100 | – | > 100 µM | – | > 100 | – | > 100 | – | > 100 µM | – | > 100 µM | – | – | – | > 100 µM | – | > 100 µM | > 100 µM | – |
| NC(=S)N/N=C(/CC(=O)c1ccc([N+](=O)[O-])cc1)C(=O)Nc1ncc([N+](=O)[O-])s1 | – | > 100 | – | > 100 µM | – | – | – | > 100 | – | – | – | > 100 µM | – | > 100 µM | – | – | – | > 100 µM | > 100 µM | – |
| OC1CN(OC/C=C/c2ccccc2)CC(O)C1O (configuration not stated) | – | > 100 | – | > 100 µM | – | > 100 | – | > 100 | – | – | – | > 100 µM | – | > 100 µM | – | > 100 µM | – | > 100 µM | > 100 µM | – |
| COc1ccc(Nc2c3ccccc3nc3c2c2ccccc2n3C)cc1 | 21.6 µM | > 100 | 15.2 µM | > 100 µM | 5.57 µM | > 100 | – | – | 78.3 | > 100 µM | 23.5 µM | > 100 µM | 57.5 µM | > 100 µM | 8.78 | 27.5 µM | 11.4 µM | 41.5 µM | > 100 µM | 57.6 |
| CC(C)c1cc(C(C)C)c(S(=O)(=O)NN)c(C(C)C)c1 | – | > 100 | – | > 100 µM | – | > 100 | – | > 100 | – | – | – | > 100 µM | – | > 100 µM | – | > 100 µM | – | > 100 µM | > 100 µM | – |
